Measurements reported in article PMC11557892, “Structural basis of MICAL autoinhibition” (Nature Communications, 2024).

How the values were obtained:
human MICAL1 = target: T1, human MICAL1 (Homo sapiens, UniProt Q8TDZ2); test: cryo-EM structure, […] Å; format: binding; conditions: oxidized state, planar isoalloxazine ring; co-purified, non-covalent; deep cavity of MO domain, stacking with Trp400; autoinhibited full-length enzyme
T1 construct: full length M1-G1067, C-terminal 3C-His8 tag, baculovirus-infected Sf9 cells
T1 sequence (Q8TDZ2 1-1067): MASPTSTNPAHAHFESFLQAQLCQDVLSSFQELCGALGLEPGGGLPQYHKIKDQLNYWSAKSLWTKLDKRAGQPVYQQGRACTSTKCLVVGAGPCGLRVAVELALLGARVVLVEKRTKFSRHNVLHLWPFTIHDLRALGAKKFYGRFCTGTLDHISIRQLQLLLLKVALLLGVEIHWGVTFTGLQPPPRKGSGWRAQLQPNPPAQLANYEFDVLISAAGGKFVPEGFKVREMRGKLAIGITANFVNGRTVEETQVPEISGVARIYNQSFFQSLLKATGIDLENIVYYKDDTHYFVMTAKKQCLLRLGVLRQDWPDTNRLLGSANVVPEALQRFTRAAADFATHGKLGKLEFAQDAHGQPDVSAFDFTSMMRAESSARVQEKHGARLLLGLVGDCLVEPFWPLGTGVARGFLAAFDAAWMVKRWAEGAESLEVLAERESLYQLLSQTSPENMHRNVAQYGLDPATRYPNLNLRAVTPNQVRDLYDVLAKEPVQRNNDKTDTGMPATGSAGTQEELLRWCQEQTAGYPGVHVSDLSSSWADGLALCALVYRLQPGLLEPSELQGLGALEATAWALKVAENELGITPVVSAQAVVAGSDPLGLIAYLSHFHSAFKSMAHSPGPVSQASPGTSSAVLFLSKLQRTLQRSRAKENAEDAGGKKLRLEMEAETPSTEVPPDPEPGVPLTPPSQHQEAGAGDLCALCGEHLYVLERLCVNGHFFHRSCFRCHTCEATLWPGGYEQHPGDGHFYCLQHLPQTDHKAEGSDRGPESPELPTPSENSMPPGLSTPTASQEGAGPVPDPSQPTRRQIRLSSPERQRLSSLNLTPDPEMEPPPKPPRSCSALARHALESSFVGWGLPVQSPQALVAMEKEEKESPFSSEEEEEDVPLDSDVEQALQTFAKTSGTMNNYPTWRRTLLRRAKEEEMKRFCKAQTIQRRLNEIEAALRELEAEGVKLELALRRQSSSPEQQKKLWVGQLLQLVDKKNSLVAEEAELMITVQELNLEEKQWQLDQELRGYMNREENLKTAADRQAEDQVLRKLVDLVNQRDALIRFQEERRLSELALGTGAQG

[1] = target: T2, human MICAL1^ΔCC (residues M1-A917) (human, UniProt Q8TDZ2 1-917); test: BLI; biotinylated CC domain immobilised (8.8 µg/ml) on Octet SAX biosensors, MO or MICAL1^ΔCC as analyte; 20 mM HEPES pH 7.4, 150 mM NaCl, 2 mM DTT, 2 mM MgCl2, 0.05% Tween 20, 20 °C; duplicates; conditions: both partners purified
T2 construct: human MICAL1 lacking the CC domain, residues M1-A917 (MO, L1, CH, L2, LIM, L3); also called MICAL^ΔCC; source: baculovirus-infected Sf9 cells, purified (HisTrap FF, Superdex 200)
T2 sequence (looked up): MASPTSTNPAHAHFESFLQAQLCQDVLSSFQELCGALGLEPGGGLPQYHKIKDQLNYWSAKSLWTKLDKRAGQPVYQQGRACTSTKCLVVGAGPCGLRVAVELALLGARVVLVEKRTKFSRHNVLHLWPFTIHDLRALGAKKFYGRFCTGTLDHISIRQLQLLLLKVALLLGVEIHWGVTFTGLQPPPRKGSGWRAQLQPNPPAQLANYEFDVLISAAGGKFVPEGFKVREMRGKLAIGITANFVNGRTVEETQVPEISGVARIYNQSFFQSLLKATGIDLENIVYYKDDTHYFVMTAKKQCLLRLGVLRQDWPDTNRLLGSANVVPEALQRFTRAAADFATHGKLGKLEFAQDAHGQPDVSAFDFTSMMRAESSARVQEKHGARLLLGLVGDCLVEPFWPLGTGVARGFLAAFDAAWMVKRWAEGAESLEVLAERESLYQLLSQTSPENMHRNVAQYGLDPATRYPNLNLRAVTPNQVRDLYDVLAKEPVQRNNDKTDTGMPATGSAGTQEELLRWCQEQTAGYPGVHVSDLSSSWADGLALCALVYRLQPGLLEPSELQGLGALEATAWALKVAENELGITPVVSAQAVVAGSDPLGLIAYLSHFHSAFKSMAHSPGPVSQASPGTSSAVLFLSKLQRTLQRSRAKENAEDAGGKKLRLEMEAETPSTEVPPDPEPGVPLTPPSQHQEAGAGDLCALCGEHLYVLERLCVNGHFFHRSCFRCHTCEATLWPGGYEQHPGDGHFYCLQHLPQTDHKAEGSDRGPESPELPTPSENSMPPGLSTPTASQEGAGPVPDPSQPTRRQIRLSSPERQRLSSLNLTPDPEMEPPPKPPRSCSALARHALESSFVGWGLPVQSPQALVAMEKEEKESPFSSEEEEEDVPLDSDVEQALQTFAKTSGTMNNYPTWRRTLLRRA

**Q.** `Cc1cc2nc3c(=O)[nH]c(=O)nc-3n(C[C@H](O)[C@H](O)[C@H](O)COP(=O)(O)OP(=O)(O)OC[C@H]3O[C@@H](n4cnc5c(N)ncnc54)[C@H](O)[C@@H]3O)c2cc1C` [FAD] was tested. Which “cryo-EM structure, 3.1 Å” value (human MICAL1) did it give?
**A.** A deep cavity located between these subdomains is partially occupied by the FAD cofactor

B1: biotinylated human MICAL1^CC (residues K918-G1067) (domain or fragment, UniProt Q8TDZ2 918-1067, looked up)
chain: KEEEMKRFCKAQTIQRRLNEIEAALRELEAEGVKLELALRRQSSSPEQQKKLWVGQLLQLVDKKNSLVAEEAELMITVQELNLEEKQWQLDQELRGYMNREENLKTAADRQAEDQVLRKLVDLVNQRDALIRFQEERRLSELALGTGAQG
modifications: biotin on the Avi tag (biotinylated in vivo)
notes: human MICAL1 coiled-coil (CC) domain, residues K918-G1067; The BLI construct; also called CC domain; coiled-coil domain; source: E. coli BL21(DE3)BirA, biotinylated in vivo, purified (HisTrap Talon, Superdex 200); not shown: Avi tag, C-terminal, kept
**Q.** How did the Kd [1] turn out when B1 was run?
**A.** 580 ± 170 nM
